{
  "source": "patent US10272055B2",
  "about": "“Therapeutic compounds and methods” (Regents of the University of Minnesota, priority 2014, dated 2019)",
  "key": {"AMPK [1]": {"system": "AMPK", "assay": "AMPK phosphorylation Western blot in MCF7", "assay_type": "cell-based", "settings": "for AMPK phosphorylation relative to control: MCF7, 6 hours, metformin, buformin, phenformin 1 mM, HBB 20 uM", "procedure": "Western blotting analysis was performed in triplicate.\nCells were plated in complete media in the presence of serum (10% FBS) and cultured at 37° C. with 5% CO2 and treated with biguanides for 6 hours before harvesting. Total protein was extracted and analyzed by Western-blotting with GAPDH as an internal control.\nCells were plated in complete media in the presence of serum (10% FBS) and cultured at 37° C. with 5% CO2 and treated with 14,15-EET or EtOH control for 24 hours before harvesting. Total protein was extracted and analyzed by Western-blotting with GAPDH as an internal control."}, "AMPK [2]": {"system": "AMPK", "assay": "AMPK phosphorylation Western blot in MDA-MB-231", "assay_type": "cell-based", "settings": "MDA-MB-231, 1 uM 14,15-EET, 24 hours", "procedure": "FIG. 38 illustrates that 14,15-EET inactivates AMPK in MCF7 line but not in MDA-MB-231 line. Cells were plated in complete media in the presence of serum (10% FBS) and cultured at 37° C. with 5% CO2 and treated with 14,15-EET or EtOH control for 24 hours before harvesting. Total protein was extracted and analyzed by Western-blotting with GAPDH as an internal control."}, "CYP3A4 epoxygenase": {"target": "CYP3A4 epoxygenase (Homo sapiens, UniProt P08684)", "sequence (P08684 whole entry)": "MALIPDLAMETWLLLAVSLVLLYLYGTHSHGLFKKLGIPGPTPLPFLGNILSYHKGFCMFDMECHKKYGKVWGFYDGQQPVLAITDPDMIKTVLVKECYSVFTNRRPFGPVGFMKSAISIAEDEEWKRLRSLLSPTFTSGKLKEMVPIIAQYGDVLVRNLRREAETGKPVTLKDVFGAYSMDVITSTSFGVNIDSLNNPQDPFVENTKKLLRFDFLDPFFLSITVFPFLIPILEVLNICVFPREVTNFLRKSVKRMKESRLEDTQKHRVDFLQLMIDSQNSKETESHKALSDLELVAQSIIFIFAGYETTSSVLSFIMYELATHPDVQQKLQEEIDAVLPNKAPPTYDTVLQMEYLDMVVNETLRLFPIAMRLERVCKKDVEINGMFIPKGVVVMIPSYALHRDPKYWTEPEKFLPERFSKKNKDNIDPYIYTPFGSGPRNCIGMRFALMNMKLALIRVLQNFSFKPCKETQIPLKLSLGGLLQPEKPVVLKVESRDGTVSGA", "assay": "CYP3A4 Supersome epoxygenase assay: EET synthesis from arachidonic acid, LC-ESI-MS/MS", "settings": "for inhibition of CYP3A4-mediated EETs synthesis: CYP3A4 Supersome, arachidonic acid 60 uM, 30 minutes, 37 C", "procedure": "Measurements are reported as percentage of control reactions performed with vehicle but no compound. A ^13C-EET recovery standard was used to control for recovery of EETs from extractions. […] EET measurements in these Supersome experiments are expressed as percentage of control reactions. Absolute EET measurements are determined by subtraction of regioisomer values in a baseline reaction lacking NADPH. Measurements were performed in triplicate and values are expressed as the mean±SD.\nAfter the reaction, EETs were then extracted with 1 mL dichloromethane and reconstituted in methanol and analyzed by LC-ESI-MS/MS."}, "MCF-7 cell line": {"system": "MCF-7 cell line", "assay": "MTT growth assay, MCF-7 line", "assay_type": "cell-based", "settings": "Homo sapiens, MCF7, 24 h, read-out: IC50, MCF-7 growth", "procedure": "The growth of the MCF-7 line was measured by MTT assay at 24 hours. Cells were plated in complete media in the presence of serum (10% FBS) and cultured at 37° C. with 5% CO2 and treated with the biguanide or DMSO vehicle. Growth was measured at 24 hours by MTT assay.\nCells were plated in complete media in the presence of serum (10% FBS) and cultured at 37° C. with 5% CO2 and treated with HBB or DMSO vehicle. Growth was measured at 24 hours by MTT assay."}, "MCF7 line": {"system": "MCF7 line", "assay": "14,15-EET protection against biguanide growth inhibition, MTT, MCF7", "assay_type": "cell-based", "settings": "MCF-7, exogenous (±)-14,15-EET (1 uM)", "procedure": "Cells were plated in complete media in the presence of serum (10% FBS) and cultured at 37° C. with 5% CO2 and treated with biguanides for 24 hours in the presence or absence of 1 uM 14,15-EET. Growth was then measured at 24 hour by MTT assay."}, "STAT3": {"system": "STAT3", "assay": "STAT3 phosphorylation Western blot in MCF7", "assay_type": "cell-based", "procedure": "Western blotting analysis was performed (C=control, M=metform and H=HBB).\nTotal protein was extracted and analyzed by Western-blotting with GAPDH as an internal control."}, "MDA-MB-231": {"system": "MDA-MB-231", "assay": "MTT growth assay, MDA-MB-231 line", "assay_type": "cell-based", "settings": "Homo sapiens, MDA-MB-231, 24 h, MTT assay at 24 hours, 10% FBS", "procedure": "FIG. 30 illustrates HBB inhibits proliferation of MCF7 and MDA-MB-231 lines. Cells were plated in complete media in the presence of serum (10% FBS) and cultured at 37° C. with 5% CO2 and treated with HBB or DMSO vehicle. Growth was measured at 24 hours by MTT assay. Results were converted to percent growth of control and represented as mean±S.E. (n=8)."}, "MCF7": {"system": "MCF7", "assay": "NAC protection against HBB growth inhibition, MTT, MCF7", "assay_type": "cell-based", "settings": "MCF7, 0.1 mM or 1 mM NAC, at IC50 of HBB", "procedure": "FIG. 34 illustrates that N-acetylcysteine (NAC) protects MDA-MB-231 but not MCF7 against HBB-mediated growth inhibition. Cells were plated in complete media in the presence of serum (10% FBS) and cultured at 37° C. with 5% CO2 and treated with HBB in the presence of NAC or PBS control. Growth was then measured at 24 hours by MTT assay. Results were converted to percent growth of control and represented as mean±S.E. (n=8)."}, "CYP3A4 nanodiscs": {"target": "CYP3A4 nanodiscs (Homo sapiens, UniProt P08684)", "sequence (P08684 whole entry)": "as above", "assay": "CYP3A4 nanodisc spin shift titration", "assay_type": "binding", "settings": "no CPR; 156 uM and 1.1 mM metformin"}, "[3]": {"system": "AA metabolism to EET in MCF-7 cells", "assay": "EET regioisomer abundance in MCF-7 cells", "assay_type": "cell-based", "settings": "0.10 mM metformin, 6 h"}, "MCF-7 xenograft": {"system": "MCF-7 xenograft", "assay": "MCF-7 xenograft in nude mice", "assay_type": "in vivo", "settings": "metformin 40 mg/kg/day in drinking water vs vehicle", "procedure": "FIG. 3A. MCF-7 xenograft with 3×10^6 cells in the 2nd mammary fat pad on day 0. HBB (4 mg/kg ip daily) (ν) or PBS (ρ) treatment began on day 1. * indicates P<0.05. FIG. 3B. MDAMB-231 xenograft with 1×10^6 cells in the 2nd mammary fat pad on day 0. HBB (4 mg/kg ip daily) (ν) or PBS (ρ) treatment began on day 1. N=20 mice per arm for each study; error bars are SEM.\nMCF-7 cells were implanted in the mammary fat pad of 4-5 week mice and treatment was initiated when tumor size was ≥15 mm^3 by 2 sequential measurements with randomized assignment to the treatment arms.\nFIG. 44A. Nude mice were inoculated with 3×10^6 MCF-7 cells and treated with vehicle (Δ) HBB at the MTD (4 mg/kg/day ip) (▪). (* indicates P<0.05). Error bars are SEM. […] The dose limiting toxicity was weight loss. At the MTD there was a well-tolerated 4% reduction of weight at 42 days (P<0.0001; data not shown). FIG. 44B. Nude mice were inoculated with 1×10^6MDA-MB-231 cells and treated with HBB at the MTD (4 mg/kg/day ip)."}, "CYP3A4": {"system": "CYP3A4", "assay": "CYP3A4 protein level in MCF7 cells", "assay_type": "cell-based", "settings": "MCF7, metformin 1 mM, 48 hours"}},
  "note": "Entries after “also recorded” stand apart in the source; their conditions may differ. Where two headings read alike, the source gives them in different places.",
  "data": [
    {"smiles": "CCCCCC1OC1CC=CCC=CCC=CCCCC(=O)O", "note": "(racemic) [14,15-EET, (±)-14,15-epoxyeicosatrienoic acid, reference compound]", "values": [
      {"measurement": "AMPK phosphorylation relative to EtOH control", "setting": "AMPK [1]; MCF7, 1 uM 14,15-EET, 24 hours", "result": "decreased phosphorylation of AMPK"},
      {"measurement": "AMPK phosphorylation relative to control", "setting": "AMPK [2]", "result": "no statistical significant change of AMPK phosphorylation"}
    ]},
    {"smiles": "CCCCCCNC(=N)NC(=N)NCc1ccccc1.Cl", "note": "[HBB-HCl, N1-hexyl-N5-benzyl biguanide hydrochloride]", "values": [
      {"measurement": "IC50", "setting": "CYP3A4 epoxygenase; IC50, inhibition of CYP3A4 epoxygenase", "result": "~50", "unit": "µM"},
      {"measurement": "IC50", "setting": "MCF-7 cell line; MTT assay at 24 hours, 10% FBS", "result": 20, "unit": "µM"},
      {"measurement": "rescue of MCF-7 growth by 14,15-EET in the presence of the biguanide", "setting": "MCF7 line", "result": "partially inhibited"},
      {"measurement": "concentration that inhibits STAT3 phosphorylation", "setting": "STAT3", "result": "> 10", "unit": "µM"},
      {"measurement": "fold more potent than metformin, inhibition of Stat3 phosphorylation", "setting": "STAT3; vs metformin", "result": "> 100", "unit": "fold"},
      {"measurement": "IC50", "setting": "MDA-MB-231", "result": 20, "unit": "µM"},
      {"measurement": "concentration that activates AMPK phosphorylation", "setting": "AMPK [1]", "result": "> 10", "unit": "µM"},
      {"measurement": "fold more potent than metformin, activation of AMPK phosphorylation", "setting": "AMPK [1]; vs metformin", "result": "> 100", "unit": "fold"}
    ]},
    {"smiles": "CCCCCCNC(=N)NC(=N)NCc1ncc[nH]1", "note": "[HIB 2-yl, N1-hexyl-N5-((1H-imidazol-2-yl)methyl)-biguanide]", "values": [
      {"measurement": "IC50", "setting": "MCF-7 cell line; MTT assay at 24 hours, 10% FBS", "result": "> 150", "unit": "µM"}
    ]},
    {"smiles": "CCCCCCNC(=N)NC(=N)NCc1ccncc1", "note": "[HPB, N1-hexyl-N5-(pyridin-4-ylmethyl) biguanidine]", "values": [
      {"measurement": "IC50", "setting": "MCF-7 cell line; MTT assay at 24 hours, 10% FBS", "result": 40, "unit": "µM"}
    ]},
    {"smiles": "CC(=O)N[C@@H](CS)C(=O)O", "note": "[NAC, N-acetylcysteine]", "values": [
      {"measurement": "protection by NAC against HBB-mediated growth inhibition", "setting": "MCF7", "result": "failed to protect"}
    ]},
    {"smiles": "CCCCNC(=N)NC(=N)N", "note": "[buformin]", "values": [
      {"measurement": "IC50", "setting": "MCF-7 cell line", "result": "> 10000", "unit": "µM"},
      {"measurement": "rescue of MCF-7 growth by 14,15-EET in the presence of the biguanide", "setting": "MCF7 line", "result": "rescues the MCF-7 line; also recorded: partial rescue"},
      {"measurement": "AMPK phosphorylation relative to control", "setting": "AMPK [1]", "result": "increased phosphorylation of AMPK"}
    ]},
    {"smiles": "CN(C)C(=N)N=C(N)N", "note": "[metformin, reference compound]", "values": [
      {"measurement": "inhibition of CYP3A4-mediated EETs synthesis", "setting": "CYP3A4 epoxygenase", "result": "inhibit CYP3A4 epoxygenase; also recorded: significantly reduced EETs production"},
      {"measurement": "binding to CYP3A4 nanodiscs", "setting": "CYP3A4 nanodiscs", "result": "binds to functional CYP3A4 epoxygenase nanodiscs"},
      {"measurement": "abundance of EET regioisomers", "setting": "[3]", "result": "reduced abundance"},
      {"measurement": "IC50", "setting": "MCF-7 cell line; MTT assay at 24 hours, 10% FBS", "result": "> 10000", "unit": "µM"},
      {"measurement": "rescue of MCF-7 growth by 14,15-EET in the presence of the biguanide", "setting": "MCF7 line", "result": "rescues the MCF-7 line; also recorded: partial rescue"},
      {"measurement": "tumor growth, MCF-7 xenograft", "setting": "MCF-7 xenograft", "result": "inhibits the MCF-7 xenograft"},
      {"measurement": "tumor growth, MCF-7 xenograft", "setting": "MCF-7 xenograft; listed as Metformin", "result": "suppressed tumor growth"},
      {"measurement": "CYP3A4 protein level", "setting": "CYP3A4", "result": "does not change CYP3A4 protein level"}
    ]},
    {"smiles": "[H]/N=C(/N)N/C(=N/[H])NCCc1ccccc1", "note": "[phenformin, reference compound]", "values": [
      {"measurement": "inhibition of CYP3A4-mediated EETs synthesis", "setting": "CYP3A4 epoxygenase", "result": "inhibit CYP3A4 epoxygenase"},
      {"measurement": "IC50", "setting": "MCF-7 cell line; MTT assay at 24 hours, 10% FBS", "result": 8000, "unit": "µM"},
      {"measurement": "rescue of MCF-7 growth by 14,15-EET in the presence of the biguanide", "setting": "MCF7 line", "result": "rescues the MCF-7 line; also recorded: partial rescue"},
      {"measurement": "AMPK phosphorylation relative to control", "setting": "AMPK [1]", "result": "increased phosphorylation of AMPK"}
    ]}
  ]
}
